Data as given in article PMC9866706 (Toxins, 2022).
Entries after “also recorded” stand apart in the source; their conditions may differ. Bridges are numbered along the chain shown (N, C = ends). Where no end group is shown, it is not given here.

Key:
[1] = molecular target: T1, mα1β1δε nAChR (Mus musculus, UniProt P02716+P04756+P09690+P20782); assay: ACh-evoked currents in Xenopus oocytes (TEVC), mα1β1δε; type: cell-based
T1 construct: expressed in transfected cells; host or cells: Xenopus laevis oocytes injected with cRNA

[2] = molecular target: T2, rα2β2 nAChR (Rattus norvegicus, UniProt P12389+P12390); assay: ACh-evoked currents in Xenopus oocytes (TEVC), rα2β2; type: cell-based
T2 construct: expressed in transfected cells; host or cells: Xenopus laevis oocytes injected with cRNA

[3] = molecular target: T3, rα2β4 nAChR (Rattus norvegicus, UniProt P12389+P12392); assay: ACh-evoked currents in Xenopus oocytes (TEVC), rα2β4; type: cell-based
T3 construct: expressed in transfected cells; host or cells: Xenopus laevis oocytes injected with cRNA

[4] = molecular target: T4, rα3β2 nAChR (Rattus norvegicus, UniProt P04757+P12390); assay: ACh-evoked currents in Xenopus oocytes (TEVC), rα3β2; type: cell-based
T4 construct: expressed in transfected cells; host or cells: Xenopus laevis oocytes injected with cRNA

[5] = molecular target: T5, rα3β4 nAChR (Rattus norvegicus, UniProt P04757+P12392); assay: ACh-evoked currents in Xenopus oocytes (TEVC), rα3β4; type: cell-based
T5 construct: expressed in transfected cells; host or cells: Xenopus laevis oocytes injected with cRNA

[6] = molecular target: T6, rα4β2 nAChR (Rattus norvegicus, UniProt P09483+P12390); assay: ACh-evoked currents in Xenopus oocytes (TEVC), rα4β2; type: cell-based
T6 construct: expressed in transfected cells; host or cells: Xenopus laevis oocytes injected with cRNA

[7] = molecular target: T7, rα4β4 nAChR (Rattus norvegicus, UniProt P09483+P12392); assay: ACh-evoked currents in Xenopus oocytes (TEVC), rα4β4; type: cell-based
T7 construct: expressed in transfected cells; host or cells: Xenopus laevis oocytes injected with cRNA

[8] = molecular target: T8, rα6/α3β4 nAChR (Rattus norvegicus, UniProt P04757+P12392+P43143); assay: ACh-evoked currents in Xenopus oocytes (TEVC), rα6/α3β4; type: cell-based
T8 construct: expressed in transfected cells; host or cells: Xenopus laevis oocytes injected with cRNA

[9] = molecular target: T9, rα7 nAChR (Rattus norvegicus, UniProt Q05941); assay: ACh-evoked currents in Xenopus oocytes (TEVC), rα7; type: cell-based
T9 construct: expressed in transfected cells; host or cells: Xenopus laevis oocytes injected with cRNA

[10] = molecular target: T10, hα7 nAChR (Homo sapiens, UniProt P36544); assay: ACh-evoked currents in Xenopus oocytes (TEVC), hα7; type: cell-based
T10 construct: expressed in transfected cells; host or cells: Xenopus laevis oocytes injected with cRNA

[11] = molecular target: T11, rα9α10 nAChR (Rattus norvegicus, UniProt P43144+Q9JLB5); assay: ACh-evoked currents in Xenopus oocytes (TEVC), rα9α10; type: cell-based
T11 construct: expressed in transfected cells; host or cells: Xenopus laevis oocytes injected with cRNA

[12] = test system: TRPC1; design: method as in doi.org/10.1016/j.toxicon.2006.09.030; details: ref doi.org/10.1016/j.toxicon.2006.09.030; cited from earlier work
[13] = test system: neuronal tetrodotoxin-sensitive voltage-gated sodium channel of adult rat dorsal root ganglion neurons; details: cited from earlier work
[14] = test system: tetrodotoxin-resistant voltage-gated sodium channel; details: cited from earlier work
[15] = test system: TRPA1; design: method as in earlier work; details: ref doi.org/10.1016/j.cub.2014.01.013; doi.org/10.1016/j.toxicon.2006.09.014; cited from earlier work
[16] = test system: Nav1.2; design: method as in earlier work; details: ref doi.org/10.1016/j.cub.2014.01.013; doi.org/10.1016/j.toxicon.2006.09.014; cited from earlier work
[17] = test system: Nav1.5; design: method as in earlier work; details: ref doi.org/10.1016/j.cub.2014.01.013; doi.org/10.1016/j.toxicon.2006.09.014; cited from earlier work
[18] = test system: Nav1.7; design: method as in earlier work; details: ref doi.org/10.1016/j.cub.2014.01.013; doi.org/10.1016/j.toxicon.2006.09.014; cited from earlier work
[19] = test system: Nav1.8; design: method as in earlier work; details: ref doi.org/10.1016/j.cub.2014.01.013; doi.org/10.1016/j.toxicon.2006.09.014; cited from earlier work
[20] = test system: KVAP; design: method as in doi.org/10.1038/nature01473; details: ref doi.org/10.1038/nature01473; cited from earlier work

T9 sequence (Q05941 23-502): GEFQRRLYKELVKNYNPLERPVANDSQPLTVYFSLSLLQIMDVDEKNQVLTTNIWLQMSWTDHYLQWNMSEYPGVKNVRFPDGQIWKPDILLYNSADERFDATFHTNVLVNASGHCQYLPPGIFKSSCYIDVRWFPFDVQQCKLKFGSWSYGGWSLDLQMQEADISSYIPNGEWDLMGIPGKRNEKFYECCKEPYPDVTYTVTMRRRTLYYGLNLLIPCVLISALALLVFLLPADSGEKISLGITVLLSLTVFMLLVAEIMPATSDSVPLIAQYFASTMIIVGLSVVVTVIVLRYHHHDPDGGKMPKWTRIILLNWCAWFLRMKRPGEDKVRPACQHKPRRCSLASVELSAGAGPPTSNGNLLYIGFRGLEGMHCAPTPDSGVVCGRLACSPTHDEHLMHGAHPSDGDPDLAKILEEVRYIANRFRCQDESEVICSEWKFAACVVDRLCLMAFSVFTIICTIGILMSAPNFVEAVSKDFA
T11 sequence (Q9JLB5 25-447): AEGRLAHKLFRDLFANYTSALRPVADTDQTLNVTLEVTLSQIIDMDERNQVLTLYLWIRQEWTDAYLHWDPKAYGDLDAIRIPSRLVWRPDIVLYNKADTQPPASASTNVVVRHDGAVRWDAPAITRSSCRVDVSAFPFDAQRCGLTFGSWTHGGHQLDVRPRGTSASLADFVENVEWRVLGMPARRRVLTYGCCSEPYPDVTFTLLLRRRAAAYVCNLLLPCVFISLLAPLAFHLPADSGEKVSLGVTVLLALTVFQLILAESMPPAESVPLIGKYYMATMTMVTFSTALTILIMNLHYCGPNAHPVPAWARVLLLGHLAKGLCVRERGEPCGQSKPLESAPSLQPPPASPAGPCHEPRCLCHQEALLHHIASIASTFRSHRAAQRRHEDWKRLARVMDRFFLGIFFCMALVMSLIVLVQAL
T11 sequence (P43144 26-479): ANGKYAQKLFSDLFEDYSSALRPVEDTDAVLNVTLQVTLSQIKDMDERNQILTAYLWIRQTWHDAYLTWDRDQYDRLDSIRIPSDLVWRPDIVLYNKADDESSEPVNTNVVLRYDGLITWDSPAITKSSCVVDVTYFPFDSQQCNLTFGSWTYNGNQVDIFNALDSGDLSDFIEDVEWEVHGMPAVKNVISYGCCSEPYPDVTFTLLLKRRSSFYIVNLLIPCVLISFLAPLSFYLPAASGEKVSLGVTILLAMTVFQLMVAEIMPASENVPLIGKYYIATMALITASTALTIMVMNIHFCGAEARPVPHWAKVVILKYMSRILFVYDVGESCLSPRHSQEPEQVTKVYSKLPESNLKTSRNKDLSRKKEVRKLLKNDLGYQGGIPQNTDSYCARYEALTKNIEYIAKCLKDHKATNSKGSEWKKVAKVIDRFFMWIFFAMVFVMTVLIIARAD
T5 sequence (P04757 26-499): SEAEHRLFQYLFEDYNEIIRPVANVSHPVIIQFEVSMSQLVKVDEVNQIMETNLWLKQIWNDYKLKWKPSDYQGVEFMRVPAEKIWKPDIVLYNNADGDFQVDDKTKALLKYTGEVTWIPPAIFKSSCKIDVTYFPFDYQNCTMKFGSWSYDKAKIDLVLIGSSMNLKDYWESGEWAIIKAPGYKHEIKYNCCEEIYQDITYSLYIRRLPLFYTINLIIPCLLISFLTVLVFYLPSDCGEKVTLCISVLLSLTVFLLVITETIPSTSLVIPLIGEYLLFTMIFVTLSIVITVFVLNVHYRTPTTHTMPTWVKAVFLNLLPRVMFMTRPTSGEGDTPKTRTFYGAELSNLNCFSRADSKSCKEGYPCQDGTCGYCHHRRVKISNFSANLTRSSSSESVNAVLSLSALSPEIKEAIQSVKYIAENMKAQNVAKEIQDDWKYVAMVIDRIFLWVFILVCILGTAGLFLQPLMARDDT
T5 sequence (P12392 21-495): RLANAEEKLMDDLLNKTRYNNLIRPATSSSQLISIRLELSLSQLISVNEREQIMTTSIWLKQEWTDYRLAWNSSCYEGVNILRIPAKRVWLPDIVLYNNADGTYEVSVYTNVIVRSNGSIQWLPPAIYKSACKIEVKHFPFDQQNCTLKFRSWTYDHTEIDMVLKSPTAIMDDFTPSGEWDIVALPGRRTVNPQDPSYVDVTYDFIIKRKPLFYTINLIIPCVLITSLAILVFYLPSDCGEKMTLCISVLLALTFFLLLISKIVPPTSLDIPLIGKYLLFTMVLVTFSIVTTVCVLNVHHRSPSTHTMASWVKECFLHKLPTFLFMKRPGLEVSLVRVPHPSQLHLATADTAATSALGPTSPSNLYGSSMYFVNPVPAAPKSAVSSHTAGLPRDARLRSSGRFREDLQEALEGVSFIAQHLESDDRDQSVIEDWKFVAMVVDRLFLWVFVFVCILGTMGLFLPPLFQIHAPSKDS
T10 sequence (P36544 23-502): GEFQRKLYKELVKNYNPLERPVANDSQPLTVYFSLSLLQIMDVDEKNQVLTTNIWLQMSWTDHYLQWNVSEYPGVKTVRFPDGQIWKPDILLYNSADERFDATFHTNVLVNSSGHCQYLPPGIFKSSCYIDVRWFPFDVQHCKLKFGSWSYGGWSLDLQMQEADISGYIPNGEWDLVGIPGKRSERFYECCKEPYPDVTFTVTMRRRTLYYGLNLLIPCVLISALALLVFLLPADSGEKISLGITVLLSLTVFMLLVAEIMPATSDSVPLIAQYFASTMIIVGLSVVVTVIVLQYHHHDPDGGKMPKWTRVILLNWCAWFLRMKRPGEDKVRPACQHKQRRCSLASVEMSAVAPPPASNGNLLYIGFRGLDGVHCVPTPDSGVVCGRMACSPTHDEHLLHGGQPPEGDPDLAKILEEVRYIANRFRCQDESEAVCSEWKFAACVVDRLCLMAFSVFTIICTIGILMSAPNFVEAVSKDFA
T1 sequence (P20782 21-493): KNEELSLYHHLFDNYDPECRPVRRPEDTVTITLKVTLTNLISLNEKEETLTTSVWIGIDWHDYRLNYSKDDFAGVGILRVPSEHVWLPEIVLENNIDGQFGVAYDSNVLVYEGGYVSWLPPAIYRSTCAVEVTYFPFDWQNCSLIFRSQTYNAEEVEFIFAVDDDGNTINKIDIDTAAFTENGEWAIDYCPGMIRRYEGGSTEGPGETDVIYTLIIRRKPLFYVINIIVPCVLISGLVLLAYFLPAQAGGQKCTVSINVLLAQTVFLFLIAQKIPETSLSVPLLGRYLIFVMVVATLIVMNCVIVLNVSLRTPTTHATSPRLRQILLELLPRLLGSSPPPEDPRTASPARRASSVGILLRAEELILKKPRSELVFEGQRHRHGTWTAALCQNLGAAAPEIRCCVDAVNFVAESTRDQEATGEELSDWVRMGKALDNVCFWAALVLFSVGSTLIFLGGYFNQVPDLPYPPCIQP
T1 sequence (P04756 21-457): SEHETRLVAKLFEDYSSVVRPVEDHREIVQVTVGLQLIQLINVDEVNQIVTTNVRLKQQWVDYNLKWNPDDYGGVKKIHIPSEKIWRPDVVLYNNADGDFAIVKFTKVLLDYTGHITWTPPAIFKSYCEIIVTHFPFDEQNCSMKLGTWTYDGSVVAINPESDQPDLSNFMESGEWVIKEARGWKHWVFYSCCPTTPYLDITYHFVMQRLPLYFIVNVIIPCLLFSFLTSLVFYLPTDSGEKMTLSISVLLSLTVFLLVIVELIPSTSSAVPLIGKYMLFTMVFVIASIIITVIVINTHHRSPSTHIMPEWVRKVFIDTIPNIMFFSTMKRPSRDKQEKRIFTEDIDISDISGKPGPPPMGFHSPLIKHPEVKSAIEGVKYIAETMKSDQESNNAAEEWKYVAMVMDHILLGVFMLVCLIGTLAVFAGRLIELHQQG
T1 sequence (P09690 24-501): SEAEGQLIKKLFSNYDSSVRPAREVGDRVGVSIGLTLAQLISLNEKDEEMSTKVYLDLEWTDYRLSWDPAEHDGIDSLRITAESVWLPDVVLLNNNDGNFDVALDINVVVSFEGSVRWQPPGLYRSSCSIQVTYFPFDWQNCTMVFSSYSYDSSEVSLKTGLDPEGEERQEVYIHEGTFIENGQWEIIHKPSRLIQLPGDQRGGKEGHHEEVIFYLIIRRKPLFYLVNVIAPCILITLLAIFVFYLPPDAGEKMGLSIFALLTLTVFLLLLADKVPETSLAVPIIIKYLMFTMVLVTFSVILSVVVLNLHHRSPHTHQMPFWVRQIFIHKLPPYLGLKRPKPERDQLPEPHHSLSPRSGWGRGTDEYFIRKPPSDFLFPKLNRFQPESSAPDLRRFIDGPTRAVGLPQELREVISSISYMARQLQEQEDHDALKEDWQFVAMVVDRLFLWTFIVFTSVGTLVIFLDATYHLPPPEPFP
T1 sequence (P02716 25-520): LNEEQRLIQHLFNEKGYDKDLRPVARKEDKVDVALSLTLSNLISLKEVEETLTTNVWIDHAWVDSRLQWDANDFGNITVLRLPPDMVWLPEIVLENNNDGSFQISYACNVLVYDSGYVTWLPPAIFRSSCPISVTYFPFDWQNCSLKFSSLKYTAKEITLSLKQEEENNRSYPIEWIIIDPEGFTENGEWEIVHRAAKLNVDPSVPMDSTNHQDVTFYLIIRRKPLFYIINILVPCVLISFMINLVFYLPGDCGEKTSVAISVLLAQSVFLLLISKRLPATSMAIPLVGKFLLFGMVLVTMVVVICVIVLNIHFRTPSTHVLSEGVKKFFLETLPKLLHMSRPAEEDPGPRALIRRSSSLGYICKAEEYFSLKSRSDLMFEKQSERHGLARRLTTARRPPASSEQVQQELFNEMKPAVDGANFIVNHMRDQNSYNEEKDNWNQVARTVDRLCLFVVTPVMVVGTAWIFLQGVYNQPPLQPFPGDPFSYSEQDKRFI

GCKKLNSYCTRQHRECCHGLVCRRPDYGIGRGILWKCTRARK (disulfide 2-17, 9-22, 16-37) [Ms11a-3]
IC50 [1]: 1.21 µM | Hill Slope ([1]; mean (95% confidence interval)): 1.35 (0.71–1.99) | IC50 [2]: > 10 µM | IC50 [3]: > 10 µM | IC50 [4]: > 10 µM | IC50 [5]: 5.17 µM | Hill Slope ([5]; mean (95% confidence interval)): 0.84 (0.67–1.00) | IC50 [6]: > 10 µM | IC50 [7]: > 10 µM | IC50 [8]: > 10 µM | IC50 [9]: 4.79 µM | Hill Slope ([9]; mean (95% confidence interval)): 0.99 (0.59–1.40) | functional potency ([9]; towards α7 and heteromeric nAChRs): lowest potency | IC50 [10]: 8.87 µM | Hill Slope ([10]; mean (95% confidence interval)): 0.95 (0.30–1.61) | IC50 [11]: 0.202 µM | functional antagonism ([11]; compared to the muscle and α7 receptors): highest antagonism; also recorded: effectively blocking the neuronal α9α10 and to a lesser extent muscle nAChR subtypes | Hill Slope ([11]; mean (95% confidence interval)): 0.71 (0.52–0.90)

GsMTx-4
Target (that was in the corresponding Ref.) [12]: TRPC1

HWTX-IV: Haplopelma schmidti toxin, PDB 1MB6
IC50 [13]: 0.03 µM | No (or weak) effect [14]: No (or weak) effect

ProTx-I
IC50 [15]: 0.389 ± 0.077 µM | Target (that was in the corresponding Ref.) [16]: Nav1.2 | Target (that was in the corresponding Ref.) [17]: Nav1.5 | Target (that was in the corresponding Ref.) [18]: Nav1.7 | Target (that was in the corresponding Ref.) [19]: Nav1.8

VSTx1: Grammostola rosea toxin, PDB 2N1N (ECGKFMWKCKNSNDCCKDLVCSSRWKWCVLASPF; UniProt P60980 30-63, looked up)
Target (that was in the corresponding Ref.) [20]: KVAP
